Assay: xn = mol fraction of the nth substance listed
Settings: 100 kPa; for electrical conductivity: frequency 0.001 MHz

CCO + C[N+](C)(C)CCC[N+]1(C)CCCCC1.N#C[N-]C#N.N#C[N-]C#N
x2 = 0
Settings | viscosity [mPa·s]
293.15 K | 1.19
303.15 K | 0.991
313.15 K | 0.828
323.15 K | 0.705
333.15 K | 0.593

CCO + C[N+](C)(C)CCC[n+]1ccccc1.N#C[N-]C#N.N#C[N-]C#N
x2 = 0
Settings | viscosity [mPa·s]
293.15 K | 1.19
303.15 K | 0.991
313.15 K | 0.828
323.15 K | 0.705
333.15 K | 0.593

CCCCCC[N+]1(C)CCCC1.O=S(=O)([N-]S(=O)(=O)C(F)(F)F)C(F)(F)F + Cc1ccccc1
Settings | viscosity [mPa·s]
293.15 K, x2 = 0.3938 | 37.27
293.15 K, x2 = 0.7993 | 4.124
303.15 K, x2 = 0.5961 | 11.17
308.15 K, x2 = 0.29 | 30.33
308.15 K, x2 = 0.7993 | 3.15
313.15 K, x2 = 0 | 51

CCCC[N+](CCCC)(CCCC)Cc1ccccc1.[Cl-] + NC(=O)CC[C@H](N)C(=O)O + O
Settings | electrical conductivity, 293.15 K [S/m] | electrical conductivity, 298.15 K [S/m] | electrical conductivity, 303.15 K [S/m] | electrical conductivity, 308.15 K [S/m] | electrical conductivity, 313.15 K [S/m] | viscosity, 293.15 K [mPa·s] | viscosity, 298.15 K [mPa·s] | viscosity, 303.15 K [mPa·s] | viscosity, 308.15 K [mPa·s] | viscosity, 313.15 K [mPa·s]
x2 = 0.0001802, x1 = 1.802e-05 | 0.0331 | 0.0352 | 0.0382 | 0.041 | 0.0452 | 0.961 | 0.921 | 0.884 | – | –
x2 = 0.0001803, x1 = 5.405e-05 | 0.0419 | 0.0441 | 0.0463 | 0.0496 | 0.0536 | 0.969 | 0.929 | 0.888 | – | –
x2 = 0.0001804, x1 = 9.008e-05 | 0.0513 | 0.0542 | 0.0582 | 0.0612 | 0.0654 | 0.98 | 0.939 | 0.9 | – | –
x2 = 0.0004504, x1 = 1.801e-05 | 0.0408 | 0.0453 | 0.0486 | 0.0523 | 0.0553 | 0.969 | 0.93 | 0.893 | 0.858 | 0.803
x2 = 0.0004507, x1 = 5.403e-05 | 0.0492 | 0.0543 | 0.057 | 0.0597 | 0.0642 | 0.978 | 0.938 | 0.896 | 0.863 | 0.808
x2 = 0.000451, x1 = 9.005e-05 | 0.0592 | 0.0641 | 0.067 | 0.069 | 0.0728 | 0.99 | 0.949 | 0.909 | 0.869 | 0.817
x2 = 0.0007205, x1 = 1.801e-05 | 0.0479 | 0.0557 | 0.0582 | 0.0614 | 0.0662 | 0.977 | 0.939 | 0.902 | 0.867 | 0.812
x2 = 0.0007209, x1 = 5.402e-05 | 0.0619 | 0.0683 | 0.0702 | 0.0724 | 0.0764 | 0.987 | 0.947 | 0.906 | 0.872 | 0.818
x2 = 0.0007213, x1 = 9.003e-05 | 0.0692 | 0.0768 | 0.0774 | 0.0796 | 0.0867 | 1 | 0.96 | 0.919 | 0.88 | 0.827
x2 = 0.0009904, x1 = 1.8e-05 | 0.0551 | 0.064 | 0.0692 | 0.071 | 0.0769 | 0.985 | 0.948 | 0.912 | 0.877 | 0.823
x2 = 0.000991, x1 = 5.4e-05 | 0.0713 | 0.0784 | 0.0819 | 0.0821 | 0.0806 | 0.996 | 0.957 | 0.917 | 0.882 | 0.827
x2 = 0.0009916, x1 = 9e-05 | 0.0768 | 0.0871 | 0.0876 | 0.0906 | 0.1 | 1.01 | 0.97 | 0.929 | 0.891 | 0.838
x2 = 0.00126, x1 = 1.8e-05 | 0.0646 | 0.0756 | 0.079 | 0.0819 | 0.0865 | 0.994 | 0.956 | 0.921 | 0.887 | 0.833
x2 = 0.001261, x1 = 5.399e-05 | 0.0809 | 0.0902 | 0.0923 | 0.0943 | 0.103 | 1.005 | 0.967 | 0.926 | 0.894 | 0.838
x2 = 0.001262, x1 = 8.998e-05 | 0.0911 | 0.098 | 0.0989 | 0.101 | 0.113 | 1.021 | 0.98 | 0.939 | 0.901 | 0.849
x2 = 0.00153, x1 = 1.799e-05 | 0.0733 | 0.0847 | 0.0896 | 0.0903 | 0.0994 | 1.002 | 0.965 | 0.929 | 0.897 | 0.843
x2 = 0.001531, x1 = 5.397e-05 | 0.0868 | 0.0975 | 0.103 | 0.105 | 0.116 | 1.014 | 0.977 | 0.936 | 0.904 | 0.849
x2 = 0.001532, x1 = 8.995e-05 | 0.099 | 0.106 | 0.108 | 0.109 | 0.119 | 1.029 | 0.99 | 0.95 | 0.912 | 0.86

C[N+](C)(CCO)CCOCCO.[Cl-] + NC(N)=O
x1 = 0.5
Settings | viscosity [mPa·s]
283.15 K | 19700
288.15 K | 10900
293.15 K | 5978
298.15 K | 3500
303.15 K | 2189
308.15 K | 1389
313.15 K | 903
318.15 K | 616
323.15 K | 424
328.15 K | 305
333.15 K | 221
338.15 K | 166
343.15 K | 126
348.15 K | 97.9
353.15 K | 77.4
